Assays:
[1] = tested on: 769-P cells; assay: MTT cytotoxicity assay; type: cell-based; conditions: Homo sapiens, cell growth, 48 h treatment, read-out: IC50 (μM) ± SD 769-P
Description: (§1) Human normal renal cortical proximal tubular epithelial cell line HK-2 and human renal carcinoma cell lines CAKI-2, SLR-23, 769-P, A704 and RCC4 were previously purchased from the American Type Culture Collection (ATCC, Manassas, VA, USA) or the European Collection of Cell Cultures (ECACC, Salisbury, United Kingdom). HK2, A704, and RCC4 cells were maintained in high glucose DMEM supplemented with 10% FBS and 1% penicillin/streptomycin. SLR-23 and […] cells were cultured in RPMI-1640 medium with 10% FBS and 1% penicillin/streptomycin. CAKI-2 cells were maintained in McCoy’s 5A medium supplemented with 10% FBS and 1% penicillin/streptomycin. All the cell lines were cultured at 37°C in a humidified atmosphere of 5% CO2 and 95% air.
(§2) The effect of hit compounds on cytotoxicity was determined as previously reported ([Ding et al., 2020]). In brief, cells treated with the tested compounds were added with MTT reagent to form formazan crystals, and then the optical density (OD) values at 570 nm were determined after the crystals were dissolved in DMSO. […] Next, the values of IC50 of the selected compounds against more RCC cell lines were determined. The 5 × 10^3 cells in 100 μL culture medium were injected into each well of a 96-well plate and cultured overnight. Add different concentrations of compounds and incubate for 48 h. Then 100 μL of MTT (0.5 mg/mL) solution was added to the 96-well plate and maintained at 37°C for 4 h. Finally, 200 μL of DMSO was added and shaken for 10 min. The OD values at 570 nm were determined by a Synergy 4 microplate reader.

[2] = tested on: A704 cells; assay: MTT cytotoxicity assay; type: cell-based; conditions: Homo sapiens, cell growth, 48 h treatment, read-out: IC50 (μM) ± SD A704
Description: as §1, §2

[3] = tested on: HK-2 normal renal cortical proximal tubular epithelial cells; assay: MTT cytotoxicity assay; type: cell-based; conditions: Homo sapiens, Epithelial cell, normal cell line, 48 h treatment, read-out: IC50 (μM) ± SD HK-2
Description: as §1, §2

[4] = tested on: RCC4 cells; assay: MTT cytotoxicity assay; type: cell-based; conditions: Homo sapiens, cell growth, 48 h treatment, read-out: IC50 (μM) ± SD RCC4
Description: as §1, §2

[5] = tested on: SLR-23 cells; assay: MTT cytotoxicity assay; type: cell-based; conditions: Homo sapiens, cell growth, 48 h treatment, read-out: IC50 (μM) ± SD SLR-23
Description: as §1, §2

[6] = tested on: shBRD4-CAKI-2 cells; assay: MTT assay on shRNA-transfected CAKI-2 cells; type: cell-based; conditions: Homo sapiens, CAKI-2 stably expressing BRD4 shRNA, 48 h, read-out: IC50 (μM) ± SD shBRD4-CAKI-2
Description: as §2
^aIC50 (μM) is the concentration of compound needed to reduce cell growth by 50% following 48 h cell treatment with BST-4. shControl-CAKI-2: CAKI-2 cells stably expressing Control shRNA; shBRD4-CAKI-2 cells: CAKI-2 cells stably expressing BRD4 shRNA; shSTAT3-CAKI-2 cells: CAKI-2 cells stably expressing STAT3 shRNA; shBRD4/STAT3-CAKI-2 cells: CAKI-2 cells stably expressing BRD4/STAT3 shRNA. Each experiment was performed at least three times. Data are presented as the mean ± SD.

[7] = tested on: c-myc mRNA and Ki67 mRNA; assay: RT-qPCR on xenograft tumor tissues; type: in vivo, BALB/c nude mice; conditions: xenograft tumor tissue
Description: This method was performed as previously reported. Briefly, the CAKI-2 cells were seeded into 6-well plates and cultured overnight, and treated with different concentrations of BST-4 for 24 h. RNA was extracted from cells and tissues using Trizol reagent and reverse transcribed using PrimeScriptRTase. cDNA was used for RT-qPCR SYBR Green assays (Takara). The relative levels of c-myc mRNA were calculated as [(c-myc mRNA in the treatment group)/(β-actin mRNA in the treatment group)]/[(c-myc mRNA in the control group)/(β-actin mRNA in the control group).
To further investigate the in vivo effects of BST-4, 6–8 weeks male BALB/c nude mice were obtained by Changzhou Cavens Experimental Animal Co., Ltd. (Changzhou, China). The mice were acclimatized to the laboratory environment for a week before the experiment. The housing conditions were maintained at a temperature of 22°C ± 2°C, a relative humidity of 50%–60%, and a 12-h light/dark cycle. 0.1 mL of CAKI-2cell suspension (1 × 10⁶ cells) was subcutaneously injected into the right flank of each mouse. […] The vehicle group was injected with a vehicle solution consisting of 5% DMSO and PBS. The tumor volume of mice was measured every 2 days and calculated according to the formula: (c × c × d)/2, where c and d represent the minimum diameter and maximum diameter, respectively. […]

[8] = target: BRD4 (Homo sapiens, UniProt O60885); assay: NanoBRET assay in HEK293T cells; type: cell-based; set-up: NanoLuc BRD4/STAT3 FL Fusion Vector DNA; expressed in transfected cells; host or cells: HEK293T
Description: (§3) The method was performed as previously reported ([Horai et al., 2024]). Briefly, HEK293T cells were seeded in dishes and allow the cells to attach and recover for overnight. The mixture of Histone H4 HaloTag Fusion vector DNA, NanoLuc BRD4/STAT3 FL Fusion Vector DNA, opti-MEM, and FuGENE HD was added dropwise to the HEK293T cells followed by incubation for 20–24 h at 37°C and 5% CO2 and allow the proteins to express. The cells were collected and re-seeded in 384 well plates. HaloTag NanoBRET 618 Ligand was added to plate and allow the cells to attach and recover for 4 h. Serially diluted compounds were transferred to the plate and incubated the plate overnight. Then NanoBRET Nano-Glo Substrate in Opti-MEM was added, and shake plate to mix. The donor emission (450 nm) and acceptor emission (610 nm), BRET signal, were measured within 10 min of substrate addition using microplate reader (Envision, PerkinElmer). Data analysis was done by measuring the ratio of acceptor emission to donor emission (BRET ratio). IC50 values and curve fits were obtained using GraphPad Prism 7.0 software.

[9] = target: STAT3 (Homo sapiens, UniProt P40763); assay: NanoBRET assay in HEK293T cells; type: cell-based; set-up: NanoLuc BRD4/STAT3 FL Fusion Vector DNA; expressed in transfected cells; host or cells: HEK293T
Description: as §3

Sequence of STAT3 (P40763 2-770): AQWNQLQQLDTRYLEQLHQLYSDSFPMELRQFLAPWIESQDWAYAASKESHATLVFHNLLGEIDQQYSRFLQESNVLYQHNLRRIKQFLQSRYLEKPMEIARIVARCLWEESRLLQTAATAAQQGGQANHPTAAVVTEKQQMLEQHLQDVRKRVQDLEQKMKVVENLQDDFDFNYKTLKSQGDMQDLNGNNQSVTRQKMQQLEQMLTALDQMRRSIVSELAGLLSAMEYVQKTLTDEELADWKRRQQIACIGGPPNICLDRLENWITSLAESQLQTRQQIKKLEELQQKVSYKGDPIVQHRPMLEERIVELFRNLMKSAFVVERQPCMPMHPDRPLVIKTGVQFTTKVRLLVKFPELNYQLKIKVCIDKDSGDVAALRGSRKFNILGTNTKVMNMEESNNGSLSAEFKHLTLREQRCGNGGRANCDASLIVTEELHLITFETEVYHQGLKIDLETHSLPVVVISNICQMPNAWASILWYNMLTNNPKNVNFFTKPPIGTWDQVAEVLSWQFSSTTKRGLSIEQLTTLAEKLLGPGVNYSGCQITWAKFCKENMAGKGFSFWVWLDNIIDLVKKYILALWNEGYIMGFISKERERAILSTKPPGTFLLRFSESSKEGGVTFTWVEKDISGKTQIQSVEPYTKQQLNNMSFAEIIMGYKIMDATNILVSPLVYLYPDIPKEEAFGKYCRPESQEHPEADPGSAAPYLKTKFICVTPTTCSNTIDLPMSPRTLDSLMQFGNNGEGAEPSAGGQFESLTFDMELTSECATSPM

CCS(=O)(=O)Cc1cnc(Oc2c(F)cc(F)cc2OCCCCOc2ccc(/C=C/c3cc(OC)cc(OC)c3)cc2)c(-c2cc(C)c3c(=O)[nH]ccn23)c1 [BST-4]
IC50 [1]: 1.68 ± 0.32 µM
IC50 [2]: 1.07 ± 0.18 µM
IC50 [3]: > 10 µM
IC50 [4]: 2.19 ± 0.64 µM
IC50 [5]: 1.52 ± 0.43 µM
IC50 [6]: 5.09 ± 0.27 µM
Ki67 mRNA expression level in tumor tissues in vivo [7]: downregulated
c-myc mRNA expression level in tumor tissues in vivo [7]: downregulated
IC50 [8]: 2.58 ± 0.07 nM
IC50 [9]: 5.17 ± 0.09 nM

Reference: PMC11897524 (Frontiers in Pharmacology, 2025)
